Laboratory results published in patent US7892350B2, “Sacrificial agents for fly ash concrete” (Boral Material Technologies Inc., priority 2003, dated 2011).
Read-outs that look alike come from different tables or passages of the source.

Test: Second sacrificial agent testing protocol: paste air measurements with DDBS (0.0125 wt %) and rating; on Overall performance rating (second protocol rating): key: 0: Fail; 1: Poor; 2: Good; 3: Preferred; 4: Most preferred; on SA Rating (0-4): key: 0: Fail; 1: Poor; 2: Good; 3: Preferred; 4: Most preferred
Experimental: The second sacrificial agents evaluation protocol has been designed to assess the relative potential value of candidate sacrificial agents with a maximum of five paste air measurements.
The first two measurements (of entrained air) are carried out with a standard AEA in a portland cement paste and in a FA:cement paste; these two tests provide reference values which can be used for the relative assessment of a series of sacrificial agents. The other three paste air measurements pertain to the properties and effectiveness of the sacrificial agents.
1. Measurement of the air entrained by a standard air-entraining admixture in a cement paste of fixed composition and fluidity; the latter is a reference system which provides ‘reference’ air entrainment values (‘A’ in FIG. 8).
2. […] The difference between ‘B’ and ‘A’ in FIG. 8 is the reduction in air entrainment due to the presence of the fly ash; this is illustrated as ‘C’ in FIG. 8.
In the present SA testing and evaluation protocol, the fly ash selected should remain the same for the entire set of additives tested, in order to provide reliable relative performance ranking. For the present series of test, the Fly Ash selected was the one identified as B1 in Table 1 below; the physico-chemical properties of this fly ash are reported in Table 1.
In testing for the relative performance of the sacrificial agent, the sacrificial agent dosage was chosen in the range 0-0.1 wt %, which corresponds to typical dosage values observed in paste, mortar and concrete tests reported in Tables 2, 3 and 4 and Tables 7 to 34.
3. Measurement of the air entrainment of the SA, by itself, in a cement-only paste at a dosage of 0.1 wt %; this is illustrated as ‘D’ in FIG. 8.
4. Measurement of the air entrained by DDBS in the FA-cement paste comprising 0.05% wt SA, under the same conditions as described in 2 above. The air entrainment value observed in this system, compared to that observed in the absence of the SA, yields the air recovery due to the SA, and is illustrated schematically as ‘E’ in FIG. 8.
5. Same as in 4 above, but with a higher SA concentration at 0.1 wt %; the air entrainment observed, again compared to the value observed in the absence of the SA, yields a second value of air recovery by the SA and is illustrated as ‘F’ in FIG. 8.
For the relative performance rating of the group of products chosen as potential SA and listed in Table 36, the following rating scheme (Tables A and B) was adopted (referring to FIG. 8 and quantities defined therein):
1: Chemical name of compound tested as potential sacrificial agent • Col. 2: Level of air entrainment by the candidate sacrificial agent, at a concentration of 0.1 wt %, in a Portland cement paste ([…]) • Col. […] 5: Sacrificial agent overall rating index (described below) • Col. 6: Hydrophilic-Lipophilic Balance (HLB) values of candidate sacrificial agent (source and significance of HLB data given below) • Col. 7: Logarithm of the Oil(octanol)/water partition coefficient (Kow) of the candidate sacrificial agents (source and significance of data given below).

[1] = Portland cement paste (PCA), […]
[2] = sacrificial agent overall rating index
[3] = B1 FA/cement paste, 0.0125 wt % DDBS, 0.05 wt % SA
[4] = B1 FA/cement paste, 0.0125 wt % DDBS, 0.10 wt % SA
[5] = sum of ratings of air entrainment recovery by 0.05% and 0.1% SA, DDBS 0.0125 wt %, 50:50 B1 fly ash:cement paste

Molecule	B1 + 0.0125% DDBS + 0.05% SA (air entrainment) (B1 FA/cement paste, […])	B1 + 0.0125% DDBS + 0.1% SA (air entrainment) (B1 FA/cement paste, […])	PCA + 0.1% SA (level of air entrainment by the candidate sacrificial agent) [1]	SA Rating (0-4) [2]	B1 + 0.0125% DDBS + 0.1% SA (air entrainment) [4]	further results
Cl.NCC(N)C(=O)O (stereo not drawn)	1.7	1.9	0.3	0	–	–
Nc1c(O)cc(S(=O)(=O)[O-])c2ccccc12.[Na+]	–	–	0.4	0	2.9	B1 + 0.0125% DDBS + 0.05% SA (air entrainment) [3]: 3.1
O=S(=O)([O-])c1cc(O)c2c(O)cc(S(=O)(=O)[O-])cc2c1.[Na+].[Na+]	2.0	2.5	0.0	0	–	–
1-Octanol	–	–	0.0	0	1.4	B1 + 0.0125% DDBS + 0.05% SA (air entrainment) [3]: 2.1
CCCCO [1-Butanol]	–	–	–	–	–	B1 + 0.0125% DDBS + 0.05% SA (air entrainment): 5.9; B1 + 0.0125% DDBS + 0.1% SA (air entrainment): 6.5; Overall performance rating (second protocol rating): 4; PCA + 0.1% SA (level of air entrainment by the candidate sacrificial agent): 1.2; SA Rating (0-4): 4
CCCCCCCCCCO [1-Decanol]	2.1	1.7	0.0	0	–	–
CCN1CCCC1=O [1-Ethyl-2-Pyrrolidinone]	4.3	5.6	2.5	3	–	Overall performance rating (second protocol rating): 3
CN1CCCC1=O [1-Methyl-2-Pyrrolidinone]	–	–	1.9	0	3.8	B1 + 0.0125% DDBS + 0.05% SA (air entrainment) [3]: 3.6
CCCCCO [1-Pentanol]	4.9	4.7	0.9	3	–	Overall performance rating (second protocol rating): 3
CC(O)C(C)O (stereo not drawn) [2,3-Butanediol]	3.6	3.7	1.2	0	–	–
O=C(O)c1cc(O)ccc1O [2,5-Dihydroxybenzoic acid]	1.9	1.6	0.0	0	–	–
O=S(=O)([O-])c1ccc2cc(S(=O)(=O)[O-])ccc2c1.[Na+].[Na+] [2,6-naphthalene disulfonate Na]	–	–	–	–	–	B1 + 0.0125% DDBS + 0.05% SA (air entrainment): 2.3; B1 + 0.0125% DDBS + 0.1% SA (air entrainment): 3.0; PCA + 0.1% SA (level of air entrainment by the candidate sacrificial agent): 0.0; SA Rating (0-4): 0
NCCOCCO [2-(2-Aminoethoxy)ethanol]	–	–	0.5	1	3.9	B1 + 0.0125% DDBS + 0.05% SA (air entrainment) [3]: 3.1; Overall performance rating (second protocol rating) [5]: 1
CCC(C)O (stereo not drawn) [2-Butanol]	–	–	–	–	–	B1 + 0.0125% DDBS + 0.05% SA (air entrainment): 6.0; B1 + 0.0125% DDBS + 0.1% SA (air entrainment): 6.6; Overall performance rating (second protocol rating): 4; PCA + 0.1% SA (level of air entrainment by the candidate sacrificial agent): 1.4; SA Rating (0-4): 4
CCC(C)=O [2-Butanone (Methyl ethyl ketone)]	3.7	4.1	0.3	1	–	–
CCC(C)=O [2-Butanone]	–	–	–	–	–	Overall performance rating (second protocol rating): 1
O=C(O)c1ccc2ccccc2c1 [2-Naphthoic acid]	–	–	1.3	1	4.2	B1 + 0.0125% DDBS + 0.05% SA (air entrainment) [3]: 3.2; Overall performance rating (second protocol rating) [5]: 1

Molecule	B1 + 0.0125% DDBS + 0.05% SA (air entrainment) (B1 FA/cement paste, […])	B1 + 0.0125% DDBS + 0.1% SA (air entrainment) (B1 FA/cement paste, […])	PCA + 0.1% SA (level of air entrainment by the candidate sacrificial agent) [1]	SA Rating (0-4) [2]	B1 + 0.0125% DDBS + 0.1% SA (air entrainment) [4]	further results
CCC(O)CC [3-Pentanol]	–	–	0.5	4	6.3	B1 + 0.0125% DDBS + 0.05% SA (air entrainment) [3]: 6.1; Overall performance rating (second protocol rating) [5]: 4
CCc1ccc(S(=O)(=O)O)cc1 [4-Ethyl benzene sulfonic acid]	–	–	1.3	3	6.2	B1 + 0.0125% DDBS + 0.05% SA (air entrainment) [3]: 4.8; Overall performance rating (second protocol rating) [5]: 3
O=S(=O)(O)c1ccc(O)cc1 [4-Hydroxybenzenesulfonic acid]	–	–	0.1	0	2.0	B1 + 0.0125% DDBS + 0.05% SA (air entrainment) [3]: 2.1
O=C(O)c1ccc(O)cc1 [4-Hydroxybenzoic acid]	2.1	2.4	1.0	0	–	–
CC#N [Acetonitrile]	2.3	2.5	0.5	0	–	–
O=C(O)CCCCC(=O)O [Adipic acid]	1.9	2.2	0.2	0	–	–
CC1=CCC2CC1C2(C)C (stereo not drawn) [Alpha-Pinene]	2.4	2.9	0.4	0	–	–
Nc1ccccc1 [Aniline]	–	–	–	–	–	Overall performance rating (second protocol rating) [5]: 2
OCc1ccccc1 [Benzyl alcohol]	–	–	0.6	3	5.4	B1 + 0.0125% DDBS + 0.05% SA (air entrainment) [3]: 4.1; Overall performance rating (second protocol rating) [5]: 3
C[N+](C)(C)Cc1ccccc1.[OH-] [Benzyltrimethyl ammonium hydroxide]	–	–	–	0	3.0	B1 + 0.0125% DDBS + 0.05% SA (air entrainment) [3]: 2.3; PCA + 0.1% SA (level of air entrainment by the candidate sacrificial agent) (Portland cement paste (PCA), 0.1 wt % SA, no DDBS): 1.0
CCCC=O [Butyraldehyde]	4.0	4.0	0.0	2	–	Overall performance rating (second protocol rating): 2
OCCNCCO [Di-ethanolamine]	2.7	2.6	0.3	0	–	–
CC(O)CNCC(C)O (stereo not drawn) [Di-isopropanolamine]	–	–	–	–	–	B1 + 0.0125% DDBS + 0.05% SA (air entrainment): 4.6; B1 + 0.0125% DDBS + 0.1% SA (air entrainment): 5.5; Overall performance rating (second protocol rating): 3; PCA + 0.1% SA (level of air entrainment by the candidate sacrificial agent): 1.1; SA Rating (0-4): 3
COC(=O)CC(=O)OC [Dimethyl malonate]	2.5	2.6	0.2	0	–	–
COP(=O)([O-])OC.[Na+] [Dimethylphosphate Na]	2.5	2.7	1.3	0	–	–
C[S+](C)[O-] [Dimethylsulfoxide]	2.5	3.1	0.0	0	–	–
CNC(=O)NC [Dimethylurea]	–	–	0.5	2	2.9	Overall performance rating (second protocol rating) [5]: 2
